{"source": "patent US20250179043A1", "about": "“PROCESSES FOR THE PREPARATION OF N-(1-METHYLCYCLOPROPYL)-2-(3-PYRIDINYL)-2H-INDAZOLE-4-CARBOXAMIDE AND INTERMEDIATES THEREOF” (FMC CORPORATION, priority 2022, published 2025)", "key": {"[1]": {"assay": "Stable polymorph form screen (slurry experiments, final form by XRPD)", "type": "physicochemical", "details": "for Final form (XRPD Result): start Form A + minor Form B", "experimental": "Slurry experiments were conducted to identify the stable form at various conditions. In these experiments, saturated solutions in various solvents containing excess undissolved solids (starting with Form A+minor Form B) were stirred for extended durations. Slurries at room temperature (RT) and 2-8° C. were typically conducted for approximately 2 weeks, while slurries at 72-73° C. were stirred for a shorter duration (1 day) to minimize the potential for decomposition. […] The results are shown in the table 12 where the time and temperatures are approximate."}, "[2]": {"assay": "Form A and Form B interconversion (competitive) slurries, final form by XRPD", "type": "physicochemical", "experimental": "Relative thermodynamic stabilities of anhydrous/non-solvated Forms A and B were studied at 2-8° C., room temperature (RT) and at 71-72° C. via interconversion (competitive) slurries. In these slurries, a given solvent system was pre-saturated with compound 092 (Form A+minor Form B) at the stated temperature, and a portion of the liquid phase was filtered into a mixture of solids containing relatively equal amounts of Form A and Form B. Interconversion slurries at 2-8° C. and RT were allowed to stir for 22 days, while slurries at 71-72° C. stirred for shorter duration (2-4 days). […] The results are reported in table 13 below where: liquid phase for each slurry was pre-saturated using as-received Form A+minor Form B; solvent ratios are v/v; water activity values were calculated using UNIFAC calculator at RT; and times and temperatures are approximate."}}, "data": [{"compound": "CC1(NC(=O)c2cccc3nn(-c4cccnc4)cc23)CC1", "note": "[Form A, N-(1-methylcyclopropyl)-2-(3-pyridinyl)-2H-indazole 4-carboxamide]", "values": [{"measurement": "Relative stability of polymorph forms", "setting": "[1]; between 2° C. and 73° C., from slurries", "result": "more stable than Form B"}, {"measurement": "Relative thermodynamic stability of Forms A and B", "setting": "[2]; between 2° C. and 72° C., from competitive slurries", "result": "thermodynamically stable form"}]}, {"compound": "CC1(NC(=O)c2cccc3nn(-c4cccnc4)cc23)CC1", "note": "[Compound 092, N-(1-methylcyclopropyl)-2-(3-pyridinyl)-2H-indazole 4-carboxamide]", "values": [{"measurement": "Final form (XRPD Result)", "setting": "[1]; slurry in DCM, RT, 13 d", "result": "Form A"}, {"measurement": "Final form (XRPD Result)", "setting": "[1]; slurry in DMF, RT, 13 d", "result": "Form A"}, {"measurement": "Final form (XRPD Result)", "setting": "[1]; slurry in EtOH, 72-73° C., 1 d", "result": "Form A"}, {"measurement": "Final form (XRPD Result)", "setting": "[1]; slurry in EtOH, RT, 13 d", "result": "Form A"}, {"measurement": "Final form (XRPD Result)", "setting": "[1]; slurry in IPA, RT, 13 d", "result": "Form A"}, {"measurement": "Final form (XRPD Result)", "setting": "[1]; slurry in MEK, 72-73° C., 1 d", "result": "Form A"}, {"measurement": "Final form (XRPD Result)", "setting": "[1]; slurry in MEK, RT, 13 d", "result": "Form A"}, {"measurement": "Final form (XRPD Result)", "setting": "[1]; slurry in MeOH, 2-8° C., 14 d", "result": "Form A"}, {"measurement": "Final form (XRPD Result)", "setting": "[1]; slurry in MeOH, RT, 13 d", "result": "Form A"}, {"measurement": "Final form (XRPD Result)", "setting": "[1]; slurry in acetone, RT, 13 d", "result": "Form A"}]}, {"compound": "CC1(NC(=O)c2cccc3nn(-c4cccnc4)cc23)CC1", "note": "[Form A + Form B, N-(1-methylcyclopropyl)-2-(3-pyridinyl)-2H-indazole 4-carboxamide]", "values": [{"measurement": "Final form (XRPD Result)", "setting": "[2]; competitive slurry in EtOH, 71-72° C., 2 d", "result": "Form A"}, {"measurement": "Final form (XRPD Result)", "setting": "[2]; competitive slurry in EtOH, RT, 22 d", "result": "Form A"}, {"measurement": "Final form (XRPD Result)", "setting": "[2]; competitive slurry in NMP/water 80:20 (aw 0.39), 2-8° C., 22 d", "result": "Form A"}, {"measurement": "Final form (XRPD Result)", "setting": "[2]; competitive slurry in NMP/water 80:20 (aw 0.39), 71-72° C., 2 d", "result": "Form A"}, {"measurement": "Final form (XRPD Result)", "setting": "[2]; competitive slurry in NMP/water 80:20 (aw 0.39), RT, 22 d", "result": "Form A"}]}]}
